Reference: patent US9103791B1, “Thallium fluorescent ion indicator and assay” (Vanderbilt University, priority 2012, dated 2015)

What was measured:
[1] = system: HEK-293 cells stably transfected with hERG potassium channels; experiment: "Wash" protocol thallium flux fluorescence assay; format: cell-based; conditions: range of dofetilide concentrations, slopes of normalized fluorescence 12-22 s, compared between indicators
Description: The wash protocol experiment was conducted as follows. To a 384-well, black-wall, clear bottom, poly-D-lysine coated plate, add 20 μl/well of α-MEM containing 10% fetal bovine serum and 1× glutaGRO (Cell Culture Medium) and a 1000 cell/μl suspension of HEK-293 cells stably transfected with hERG potassium channels (Cell Plate). Incubate the Cell Plate overnight in a 5% CO2 cell culture incubator at 37° C. Remove the Cell Culture Medium from the Cell Plate and replace it with 20 μl/well Hanks Balanced Salt Solution+20 mM HEPES pH 7.3 (Assay Buffer). Dissolve 25 μg of thallium ion indicator (also referred to as a “dye”) in 25 μl DMSO containing 7% (w/v) Pluronic F-127. Add 12.5 μl of the dissolved thallium ion indicator to 10 ml Assay Buffer (Dye Loading Solution). Add 20 μl/well of Dye Loading Solution to the Cell Plate. Incubate the Cell Plate containing Dye Loading Solution for 1 hour at room temperature. […] Analyze data representing the amplitude of the fluorescent signal for each well at each of the 120 time points acquired during the Data Acquisition Protocol using Microsoft Excel by first dividing the fluorescence values from each individual well at each time point by the fluorescent value for that well at the first time point (Normalized Fluorescence Values). Calculate slopes of the Normalized Fluorescence Values between the 12 second and 22 second time points (Slope Values). […]

[2] = system: HEK-293 cells stably transfected with hERG potassium channels; experiment: "No-wash" protocol thallium flux fluorescence assay; format: cell-based; conditions: no-wash protocol with 1.25 mM probenecid; range of dofetilide concentrations; compared to FluoZin-2, AM
Description: The no-wash protocol was conducted as follows. To a 384-well, black-wall, clear bottom, poly-D-lysine coated plate, add 20 μl/well of α-MEM containing 10% fetal bovine serum and 1× glutaGRO (Cell Culture Medium) and a 1000 cell/μl suspension of HEK-293 cells stably transfected with hERG potassium channels (Cell Plate). Incubate the Cell Plate overnight in a 5% CO2 cell culture incubator at 37° C. Remove the Cell Culture Medium from the Cell Plate and replace it with 20 μl/well Hanks Balanced Salt Solution+20 mM HEPES pH 7.3+1.25 mM Probenecid (sodium salt) (NW-Assay Buffer). Dissolve 25 μg thallium ion indicator (also referred to herein as a “dye”) in 25 μl DMSO containing 7% (w/v) Pluronic F-127. Add 12.5 μl of the dissolved thallium ion indicator to 10 ml Probenecid Assay Buffer (NW-Dye Loading Solution). Add 20 μl/well of Dye Loading Solution to the Cell Plate. […] Analyze data representing the amplitude of the fluorescent signal for each well at each of the 120 time points acquired during the Data Acquisition Protocol using Microsoft Excel by first dividing the fluorescence values from each individual well at each time point by the fluorescent value for that well at the first time point (Normalized Fluorescence Values). Calculate slopes of the Normalized Fluorescence Values between the 12 second and 22 second time points (Slope Values). […]

COc1cc(NC(=O)c2ccc3c(c2)C(=O)OC32c3ccc(OC(C)=O)cc3Oc3cc(OC(C)=O)ccc32)ccc1N(CC(=O)OCOC(C)=O)CC(=O)OCOC(C)=O [Example 1, bis(acetoxymethyl) 2,2′-((4-(3′,6′-diacetoxy-3-oxo-3H-spiro[isobenzofuran-1,9′-xanthen]-5-ylcarboxamido)-2-methoxyphenyl)azanediyl)diacetate]
fluorescence results (indicator performance, FIG. 1) [1]: essentially indistinguishable | normalized signal amplitude (FIG. 2) [2]: substantial and unexpected improvement in normalized signal amplitude over FluoZin-2, AM

COc1cc(NC(=O)c2ccc3c(c2)C(=O)OC32c3cc(F)c(OC(C)=O)cc3Oc3cc(OC(C)=O)c(F)cc32)ccc1N(CC(=O)OCOC(C)=O)CC(=O)OCOC(C)=O [FluoZin-2, AM, reference compound]
fluorescence results (indicator performance, FIG. 1) [1]: essentially indistinguishable
